Measured values from patent publication US20150377889A1, “GALECTIN-3 AS A MARKER FOR PROSTATE CANCER” (Wayne State University, priority 2013, published 2015).

Key:
[1] = tested on: LNCaP, Du145, and PC3M cell lines; assay: Wound-healing (scratch) assay; type: cell-based, human; details: 24 hr, compared with the control
Procedure: Wound-healing Assay. A wound-healing assay, the scratch assay, was performed according to the protocol published in Liang, et al. (2007), Nat. Protoc. 2, 329-333. Briefly, in this scratch assay 60-mm dishes were coated with ECM and incubated overnight, unbound ECM was removed and the dishes were blocked with bovine serum albumin. Subconfluent growing cells were resuspended in a tissue culture dish by washing cells with PBS, adding versene containing trypsin, and mixing cells with medium containing serum. Cells were then plated onto the prepared 60-mm dish to create a confluent monolayer, and incubated for 6 hr at 37° C.
The cell lines LNCaP (null galectin-3), DU145 (stable clone with reduced galectin-3 expression), and PC3M were used to examine the effect of full-length galectin-3, galectin-3 1-107, and galectin-3 108-250 on prostate cancer cell motility using the scratch assay. The assay was performed with LNCaP, Du145, and PC3M cultured cell lines stimulated by full-length galectin-3, and fragments galectin-3 1-107 and 108-250. A uniform wound was made in each plate using a 1-μl pipette tip. The wound area was observed immediately, then at 24 hr after creation the cells were counted. Cells were grown under identical conditions.

LNCaP cells = assay: Chemotaxis assay (Boyden chamber); type: cell-based, human; details: 10 μg/ml, 5 hr, compared with control or either of the two fragments
Procedure: Chemotaxis. This assay was performed using a Boyden chamber (Neuroprobe). In the lower chamber, the chemo-attractant […]® (BD Biosciences) alone or mixed with various concentrations of recombinant galectin-3, galectin-3 1-107, or galectin-3 108-250 was added. LNCaP (5×10^4) cells suspended in basic DMEM were loaded in the upper chamber. The two chambers were separated by a polycarbonate filter of 5-micron pore size and incubated in a 37° C. tissue culture incubator for 5 hr, after which the filter was removed, the cells on top of the filter were wiped off, and the migrated cells were fixed, stained using Protocol Hema 3 stain set (Fisher Scientific), and counted under microscope. Each assay was carried out in triplicate.
The effects of galectin-3 1-107 and 108-250 fragments, as well as full-length galectin-3 on migration of LNCaP cells in a chemotaxis assay were also tested.

[2] = tested on: co-cultured BAMEC and LNCaP cells; assay: Three-dimensional growth and tube formation assay, BAMEC/LNCaP co-culture on […]; type: cell-based, bovine, human; details: for tube formation: loops / tube formation: units of tubes: 10 μg/ml protein added to medium, 36 hr; for tube formation: loops: control 0; for tube formation: units of tubes: control 73; for branching morphogenesis of endothelial cells: 10 μg/ml protein, BAMEC/LNCaP co-culture
Procedure: Three-dimensional Growth and Tube Formation Assay. To analyze in vitro angiogenesis and interactions between epithelial and endothelial cell formation of tubular networks by co-cultured BAMEC and LNCaP cells, a three-dimensional growth and tube formation assay was performed. Briefly, […]® (10 μl) was added to each chamber of the slide (μ-Slide, ibidi, Martinsried, Germany) and gelled by a 30-min incubation at room temperature, after which 15,000 BAMEC and 5000 LNCaP cells were plated onto the gel in 50 μl of Eagle's minimal essential complete medium. In some chambers, full-length galectin-3 or its fragments were added. After 36 hr, three-dimensional structures were observed under phase contrast microscope and photographed. Images were acquired with an Olympus IX71 microscope supporting a Hamamatsu ORCA-ER video camera. Tube formation image analysis was done using the web-based Image Analysis Win-Tube module of Wimasis online software.
Three-dimensional heterotypic co-cultures of epithelial (LNCaP) and endothelial (BAMEC) cells were performed on […]® to study tube formation in the presence of 10 μg/ml galectin-3 and its fragments. […] FIG. 2B presents a quantitative evaluation of the tube formation assay.

full-length galectin-3: recombinant full-length human galectin-3 protein (SEQ ID NO:1), overexpressed in Escherichia coli
prostate cancer cell motility [1]: promotes prostate cancer cell motility
migration of LNCaP cells toward MATRIGEL (LNCaP cells): significantly higher
tube formation: loops [2]: 12
tube formation: units of tubes [2]: 127 units
branching morphogenesis of endothelial cells [2]: induced branching morphogenesis

galectin-3 108-250: recombinant fragment 108-250 of human galectin-3 (SEQ ID NO:3), contains carbohydrate recognition domain
prostate cancer cell motility [1]: did not show a significant increase in motility
tube formation: loops [2]: 0
tube formation: units of tubes [2]: 76 units
branching morphogenesis of endothelial cells [2]: failed to do so
